The values that follow come from a melting point compilation (Tetko et al.).

As for `Nc1cccc(NC(=O)CN2CCCCCC2)c1`, the melting point (commonly the temperature, or range, at which the solid turns liquid) was in the range of 67 to 69 °C. In the case of `CC(C)c1oc(-c2ccccc2)nc1C(=O)O` it was 153 to 155 °C.

The compound `Cc1ccccc1-c1cnc(N)s1` displayed a melting point of 119 to 121 °C.

`COC(=O)CS(=O)c1ccc(Br)cc1` (stereo not given) displayed a melting point of 84 to 86 °C. Under `Nc1ccc(N2CCN(S(=O)(=O)C(F)F)CC2)cc1` stands 110 to 112 °C; under `Cc1c(Br)cccc1S(=O)(=O)Cl`, 64 to 66 °C. In turn, `O=[N+]([O-])c1cc(Br)ccc1S(=O)(=O)Cl` registered a melting point of 95 to 97 °C. Under `CC(=O)NCCc1ccc(C(=O)CCl)cc1F` stands 97 to 99 °C; under `O=[N+]([O-])c1cnc(Cl)nc1NC1CC1`, 114 to 116 °C.

`NC(=O)c1cnn2c(C(=O)O)ccnc12` had a melting point of 199 to 201 °C. Under `O=[N+]([O-])c1cc(S(=O)(=O)Cl)c(F)cc1F` stands 46 to 48 °C; under `Cc1ccc(Cc2nnc(N)s2)cc1`, 209 to 211 °C; under `O=c1[nH]c(CCl)nc2scc(-c3ccccc3)c12`, 227 to 229 °C. Under `Cc1ccn2c(C(=O)O)cnc2c1` stands 159 to 161 °C. `CN(C)S(=O)(=O)c1ccccc1CNC(=O)CCl` yielded a melting point of 87 to 89 °C. In the case of `Nc1cc(C(F)(F)F)c[nH]c1=O` it was 96 to 98 °C; in that of `NC(=S)N1CCc2sccc2C1`, 109 to 111 °C. `O=C(O)C(O)CCc1ccccc1` (stereo not given) showed a melting point of 114 to 117 °C. Under `CN1Cc2cc(Br)ccc2NC1=O` stands 209 to 211 °C; under `N#Cc1ccc2nccnc2c1`, 179 to 181 °C. In the case of `CC1Oc2ccc(Cl)cc2NC1=O` (stereo not given) it was 171 to 173 °C; in that of `Cc1cc(C(C)(C)C)cc(C)c1S(=O)(=O)N1CCNCC1`, 124 to 126 °C; in that of `CC1(c2ccc(Br)cc2)NC(=O)N(CC(=O)O)C1=O` (stereo not given), 247 to 249 °C.

Compound `O=C(O)c1cccc(N2CCOC2=O)c1` had a melting point of 214 to 216 °C.

As for `O=C(Nc1ccsc1C(=O)O)c1ccncc1`, the melting point lay within 230 to 232 °C.

On to `Cc1c(C)n(-c2ccc(Cl)cc2)c2ncnc(N)c12`, for which the melting point is 249 to 251 °C. Under `Cc1[nH]c(=O)sc1S(=O)(=O)N1CCCC1C(=O)O` (stereo not given) stands 247 to 249 °C; under `O=C(CCN1CCOCC1)c1cc2ccccc2o1`, 53 to 55 °C.

Take `NC(=C[N+](=O)[O-])N1CCOCC1`: the melting point was 236 to 238 °C. Under `CC(C)(C)c1ccc(S(=O)(=O)N2CCNCC2)cc1` stands 126 to 128 °C; under `CCn1c(=O)n(CC(=O)O)c2ccccc21`, 229 to 231 °C; under `O=C(O)CCc1ccc(OC(F)F)cc1`, 61 to 63 °C. In the case of `Cc1cn2c(n1)CNCC2` it was 100 to 102 °C. Under `Nc1c(-c2ccncc2)nc2ccccn12` stands 211 to 213 °C; under `Cc1nn2cccnc2c1C(=O)O`, 176 to 178 °C; under `CC(C)(C#N)NS(C)(=O)=O`, 61 to 63 °C.

For `O=[N+]([O-])c1cccc(Cl)c1S(=O)(=O)Cl`, the melting point lay within 81 to 83 °C. Under `Cc1cc(COc2ccc(C(=O)O)cc2Br)no1` stands 200 to 202 °C; under `O=C(O)c1ccc(NS(=O)(=O)c2ccc(Cl)c([N+](=O)[O-])c2)cc1O`, 242 to 244 °C; under `Nc1ccc(C(=O)NC2CCCCC2)cc1`, 175 to 177 °C. In the case of `CC(C)c1ccc(-n2nnnc2S)cc1` it was 100 to 102 °C; in that of `Cc1c[nH]c(=O)n1-c1ccccc1[N+](=O)[O-]`, 209 to 211 °C; in that of `COc1ccc(COCc2cccc(N)c2)cc1`, 55 to 57 °C.

`O=C(O)c1cc(-c2ccccc2)n(-c2ccccn2)n1` returned a melting point of 194 to 196 °C. In the case of `N#Cc1ccc(-n2cnc(N)n2)cc1` it was 238 to 240 °C. In the case of `O=[N+]([O-])c1cccc(-c2nn[nH]n2)c1` it was 154 to 156 °C; in that of `NNc1ccc(S(=O)(=O)Nc2cccc(Cl)c2)cc1[N+](=O)[O-]`, 195 to 197 °C. Compound `O=C(O)c1ccc(N2CCC(O)CC2)cc1` displayed a melting point of 259 to 261 °C. In the case of `Nc1ccccc1CN1CCSCC1` it was 72 to 74 °C. Under `Cc1ccsc1-c1nnc(N)[nH]1` stands 189 to 191 °C; under `CC1C(=O)NC(=O)N1c1ccccc1` (stereo not given), 147 to 149 °C; under `NS(=O)(=O)c1ccccc1O`, 135 to 137 °C. Compound `O=c1[nH]c2c(s1)CCC2` gave a melting point of 142 to 144 °C. Under `CC1CCN(C(N)=S)CC1` stands 103 to 105 °C; under `COc1ccc(NC(=O)C(Cl)c2ccccc2)cc1` (stereo not given), 152 to 156 °C; under `Cc1ccc(-c2ncco2)cc1N`, 89 to 91 °C. Regarding `O=C(O)C(=O)c1ccc(Br)cc1`, the melting point lay in the range of 105 to 107 °C. The compound `CCCOc1ccc(CCC(=O)O)cc1` gave a melting point of 90 to 92 °C. Under `O=C(O)c1ccc(S(=O)(=O)NC2CCS(=O)(=O)C2)cc1` (stereo not given) stands 303 to 305 °C; under `NC(=O)C1CC(O)CN1` (stereo not given), 117 to 119 °C; under `NNC(=S)NCc1ccc(F)cc1`, 140 to 142 °C. In the case of `Cn1c(C(=O)O)cc(Cl)c1Cl` it was 178 to 180 °C; in that of `CN1C(=O)CNC(=O)c2ccccc21`, 175 to 177 °C; in that of `Cc1nnc(N2CCCC2)c(C(N)=S)c1C`, 169 to 171 °C. The compound `O=C(Nc1cccc(Cl)c1N1CCOCC1)OCC(F)(F)F` showed a melting point of 74 to 76 °C. In the case of `Cc1c(N)cccc1NC(=O)c1ccccc1` it was 193 to 195 °C. In the case of `Nc1ccc(N2CCOCC2)c(S(=O)(=O)Nc2ccc(Cl)cc2)c1` it was 236 to 238 °C.

`CCCCCS(=O)(=O)CC(=O)O` returned a melting point of 69 to 71 °C. Compound `Cc1cc(Br)c(C(=O)O)cn1` gave a melting point of 119 to 121 °C. In the case of `CN(c1ccc(CN)cc1)S(C)(=O)=O` it was 46 to 48 °C; in that of `O=c1[nH]c(CCl)nc2ccsc12`, 190 to 193 °C. Under `CC1Oc2c(cccc2C(=O)O)NC1=O` (stereo not given) stands 281 to 283 °C; under `O=C(O)c1ccc(OCC(F)F)nc1`, 158 to 160 °C; under `Cc1nn2c(C=O)c(C(C)C)nc2s1`, 40 to 42 °C. In the case of `COc1ccc(NC(=O)C(C)Cl)cc1OC` (stereo not given) it was 109 to 111 °C; in that of `Fc1cc2cccnc2cc1F`, 109 to 111 °C. For the compound `Cn1c(Cl)nnc1-c1ccc(Cl)cc1Cl`, the melting point was in the range of 161 to 163 °C. Under `O=Cc1sc(N2CCCCC2)nc1-c1cccs1` stands 117 to 119 °C.

The compound `CCOc1ccc2c(c1)CC(C(=O)O)CO2` (stereo not given) yielded a melting point of 132 to 134 °C. Under `CS(=O)(=O)N1CCN(S(=O)(=O)Cl)CC1` stands 222 to 224 °C; under `O=C(O)c1csc(I)c1`, 136 to 138 °C.

As to `COc1cccc(N2C(=O)NC(=O)C2=O)c1`, the melting point lay in the range of 196 to 198 °C. Under `Cc1ccc(-c2noc(N)n2)cc1` stands 214 to 216 °C. For the compound `CCc1ccccc1-n1c(S)nc2ccccc2c1=O`, the melting point is 304 to 306 °C. In the case of `Cc1cc(F)c(S(N)(=O)=O)cc1[N+](=O)[O-]` it was 159 to 161 °C.
